The values below come from paper PMC3800496 (ACS Chemical Biology, 2013).

Some results are limits rather than exact numbers.

Holding throughout (experiment): anti-proliferation assay
What all share (assay type): cell-based

Assay [1] has as its system T47D(OWT). The note with it: Homo sapiens, 48 h, read-out: anti-proliferation GI50.
The subject of assay [2] is EJ(WT). The settings on record: 48 h, read-out: anti-proliferation GI50.
Assay [3] deals with SNU-449(OMT). The settings on record: Homo sapiens, SNU-449, 48 h, read-out: anti-proliferation GI50.
Assay [4] relates to SW480(OWT). The note with it: Homo sapiens, SW480, 48 h, read-out: anti-proliferation GI50.
Assay [5] concerns SaoS2(WT). The settings on record: Homo sapiens, SAOS-2, 48 h, read-out: anti-proliferation GI50.
The subject of assay [6] is H1975(WT). The settings on record: Homo sapiens, NCI-H1975, 48 h, read-out: anti-proliferation GI50.
Assay [7] concerns HCT-116(OWT). The settings on record: Homo sapiens, HCT-116, 48 h, read-out: anti-proliferation GI50.
The test system of assay [8] is SkBr3(WT). The note with it: Homo sapiens, SK-BR-3, 48 h, read-out: anti-proliferation GI50.
Assay [9] deals with SNU-1040(OMT). The note with it: Homo sapiens, 48 h, read-out: anti-proliferation GI50.
In assay [10] the test system is A549(WT). The settings on record: Homo sapiens, A549, 48 h, read-out: anti-proliferation GI50.

As for `CCN1CCN(Cc2ccc(C(=O)Nc3ccc(C)c(Oc4ccc5c(c4)CC(=O)N5)c3)cc2C(F)(F)F)CC1` [DDR1-IN-1], the GI50 in assay [1] is greater than 10 µM; in assay [2] it was greater than 10 µM; in assay [3], greater than 10 µM; in assay [4], greater than 10 µM; in assay [5], 8.14 µM; in assay [6], greater than 10 µM. For the same compound, the GI50 was 8.7 µM in assay [7], greater than 10 µM in [8], greater than 10 µM in [9] and greater than 10 µM in assay [10].
